Laboratory results reported in ChEMBL document CHEMBL1201862, “PubChem BioAssay data set” (2004).
Calls of active or inactive are those of the source.

What was measured:
[1] = target: T1, Voltage-gated N-type calcium channel alpha-1B subunit/Amyloid beta A4 precursor protein-binding family A member 1 (Homo sapiens, UniProt Q00975+Q02410); format: protein assay
[2] = target: T1, Voltage-gated N-type calcium channel alpha-1B subunit/Amyloid beta A4 precursor protein-binding family A member 1; format: protein assay; remark: listed apart in the source
[3] = target: Induced myeloid leukemia cell differentiation protein Mcl-1 (Homo sapiens, UniProt Q07820); format: functional
[4] = target: T2, Estrogen receptor (Homo sapiens, UniProt P03372);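 also: potency for inhibiting coactivator peptide recruitment to the receptor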
T2 sequence (P03372 whole entry): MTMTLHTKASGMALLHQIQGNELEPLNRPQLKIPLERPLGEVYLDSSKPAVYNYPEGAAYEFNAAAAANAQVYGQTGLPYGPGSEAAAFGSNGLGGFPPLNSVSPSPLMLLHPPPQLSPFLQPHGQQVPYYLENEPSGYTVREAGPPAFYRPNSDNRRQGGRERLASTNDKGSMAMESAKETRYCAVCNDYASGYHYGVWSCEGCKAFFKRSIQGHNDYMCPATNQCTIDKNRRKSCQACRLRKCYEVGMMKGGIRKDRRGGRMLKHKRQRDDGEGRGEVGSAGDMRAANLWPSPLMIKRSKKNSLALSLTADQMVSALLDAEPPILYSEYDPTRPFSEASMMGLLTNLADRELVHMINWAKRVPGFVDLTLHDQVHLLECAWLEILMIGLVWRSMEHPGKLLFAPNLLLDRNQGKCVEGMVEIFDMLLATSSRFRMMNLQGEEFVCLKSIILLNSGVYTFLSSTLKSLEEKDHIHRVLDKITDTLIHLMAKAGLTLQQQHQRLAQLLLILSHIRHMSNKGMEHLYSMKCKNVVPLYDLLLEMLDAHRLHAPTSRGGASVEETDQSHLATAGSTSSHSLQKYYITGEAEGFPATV

[5] = target: T3, Coagulation factor XII (Homo sapiens, UniProt P00748); format: functional;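 also: activated factor XIIa alpha cleaving a fluorogenic AMC peptide substrate; inhibitor potency from loss of enzyme activity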
T3 sequence (P00748 whole entry): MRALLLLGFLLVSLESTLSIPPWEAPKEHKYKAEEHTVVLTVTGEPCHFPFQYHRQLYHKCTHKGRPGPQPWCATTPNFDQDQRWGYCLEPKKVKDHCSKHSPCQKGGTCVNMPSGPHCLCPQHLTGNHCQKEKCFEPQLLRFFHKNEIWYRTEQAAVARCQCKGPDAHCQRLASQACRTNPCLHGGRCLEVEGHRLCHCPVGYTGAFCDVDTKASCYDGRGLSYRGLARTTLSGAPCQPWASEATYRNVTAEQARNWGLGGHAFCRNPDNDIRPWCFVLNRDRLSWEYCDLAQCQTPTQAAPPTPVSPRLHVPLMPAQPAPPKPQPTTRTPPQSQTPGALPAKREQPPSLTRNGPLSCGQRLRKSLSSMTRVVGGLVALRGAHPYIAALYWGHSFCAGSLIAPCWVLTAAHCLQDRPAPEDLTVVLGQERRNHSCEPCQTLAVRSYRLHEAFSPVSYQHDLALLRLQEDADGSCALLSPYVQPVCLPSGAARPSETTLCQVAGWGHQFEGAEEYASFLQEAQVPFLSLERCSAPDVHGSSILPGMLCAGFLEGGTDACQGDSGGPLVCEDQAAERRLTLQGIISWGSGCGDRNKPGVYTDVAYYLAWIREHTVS

[6] = DRD fibroblast viability loss – cell-based, non-viral oncogenic, luminescence, dose response (AID 1934); format: functional; conditions: Homo sapiens
[7] = test system: BJ; test: cells; format: functional, cell-based; conditions: Homo sapiens
[8] = test system: BJ; test: BJ-TERT fibroblast viability loss – cell-based, RAS-independent, luminescence, dose response (AID 1933); format: functional; conditions: Homo sapiens
[9] = test system: BJ; test: BJ-TERT-LT-ST fibroblast viability loss – cell-based, RAS-independent, luminescence, dose response (AID 1935); format: functional; conditions: Homo sapiens;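 also: BJ fibroblasts immortalized with TERT plus LT and ST oncogenes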
[10] = test system: Vero; test: cells; format: functional; conditions: Chlorocebus sabaeus
[11] = fluconazole-exposed Candida albicans growth modulators – fluorescence, retest, confirmation (AID 2467); format: functional, cell-based
[12] = Luminescence Cell-Based Dose Retest to Confirm Inhibitors of Cancer Stem Cells. [Related pubchem assays (depositor defined):AID2717, AID2721]; format: functional; conditions: Homo sapiens
[13] = THP-1 cell cytotoxicity, dose response, cytotoxicity control for non-replicating M. tuberculosis project (AID 489025); format: functional
[14] = cells; format: functional
[15] = NIH-3T3 fibroblast cytotoxicity, dose response, cytotoxicity control, cell-based, fluorescence, Alamar Blue, secondary assay (AID 2327); format: functional;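 also: NIH-3T3 mouse fibroblasts cultured with fluconazole at 8 µg/mL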
[16] = target: Cytochrome P450 3A4 (Homo sapiens, UniProt P08684);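 also: CYP3A4 tested as one member of a cytochrome P450 panel screen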
[17] = HEK-293T viability loss after treatment – luminescence, T-cell screen hits, cytotoxicity control for TCR NF-kB inhibitor project, dose response (AID 489026); format: functional, cell-based;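 also: cells exposed to compound about 14 hours before the viability readout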
[18] = alpha-synuclein stem-loop luciferase translation blockers – H4 neuroglioma cells, luminescence, confirmation (AID 1988); format: functional, cell-based
[19] = Luminescence Cell-Based Dose Response HTS to Identify Inhibitors of 5'UTR Stem-Loop Driven Prion Protein mRNA Translation in H4 Neuroglioblastoma Cells. [Related pubchem assays: 1827 (Project Summary), 1813 (Primary HTS)]; format: functional
[20] = luciferase reporter signal suppression in cells – H4 neuroglioma cells, luminescence, dose response (AID 1990); format: functional, cell-based
[21] = target: T4, Type-1 angiotensin II receptor (Homo sapiens, UniProt P30556); test: antagonism of angiotensin II type 1 receptor – cell-based, uHTS hits, selectivity assay for APJ receptor antagonist project, dose response (AID 463214); format: functional;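 also: antagonist potency against angiotensin II stimulated AT1 response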
T4 sequence (P30556 whole entry): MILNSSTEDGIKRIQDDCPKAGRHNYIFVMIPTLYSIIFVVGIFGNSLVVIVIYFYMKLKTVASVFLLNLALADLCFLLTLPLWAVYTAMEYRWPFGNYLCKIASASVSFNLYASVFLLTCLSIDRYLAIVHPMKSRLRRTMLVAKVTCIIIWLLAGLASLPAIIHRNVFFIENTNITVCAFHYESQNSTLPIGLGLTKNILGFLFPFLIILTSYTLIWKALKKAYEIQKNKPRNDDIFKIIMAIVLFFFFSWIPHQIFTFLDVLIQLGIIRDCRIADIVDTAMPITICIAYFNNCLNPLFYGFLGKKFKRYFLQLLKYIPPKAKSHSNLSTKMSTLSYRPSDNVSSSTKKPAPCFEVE

[22] = target: Beta-galactosidase (Escherichia coli, UniProt Q8VNN2); test: PubChem AID 485352; format: functional
[23] = target: T5, Protein RecA (Mycobacterium tuberculosis, UniProt P9WHJ3); test: Fluorescence Cell-Free Homogeneous Dose Retest to Identify Inhibitors of RecA-Intein Splicing Activity. [Related pubchem assays (depositor defined):AID2097, AID2223, AID489010, AID492950]; format: functional
T5 sequence (P9WHJ3 whole entry): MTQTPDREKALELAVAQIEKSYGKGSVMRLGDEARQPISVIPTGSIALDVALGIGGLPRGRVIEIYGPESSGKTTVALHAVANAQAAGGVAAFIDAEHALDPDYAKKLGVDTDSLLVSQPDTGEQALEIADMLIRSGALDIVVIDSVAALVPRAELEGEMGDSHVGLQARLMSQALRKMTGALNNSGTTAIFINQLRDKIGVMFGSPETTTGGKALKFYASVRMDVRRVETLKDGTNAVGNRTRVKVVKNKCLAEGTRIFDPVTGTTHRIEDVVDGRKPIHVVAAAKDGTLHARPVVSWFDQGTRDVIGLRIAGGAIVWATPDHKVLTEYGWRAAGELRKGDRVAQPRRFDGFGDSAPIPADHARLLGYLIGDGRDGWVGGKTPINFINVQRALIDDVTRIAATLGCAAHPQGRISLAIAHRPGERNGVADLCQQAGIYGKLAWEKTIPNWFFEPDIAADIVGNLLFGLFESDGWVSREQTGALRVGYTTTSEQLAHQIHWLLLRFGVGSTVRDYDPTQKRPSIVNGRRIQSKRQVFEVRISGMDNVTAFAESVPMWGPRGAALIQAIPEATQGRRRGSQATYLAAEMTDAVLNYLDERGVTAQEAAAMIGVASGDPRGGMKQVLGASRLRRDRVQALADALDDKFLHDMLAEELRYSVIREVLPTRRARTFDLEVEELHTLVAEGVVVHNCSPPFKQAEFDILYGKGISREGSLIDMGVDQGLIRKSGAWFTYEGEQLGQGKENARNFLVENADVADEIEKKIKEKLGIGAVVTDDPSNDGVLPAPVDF

[24] = target: T6, Replicative DNA helicase DnaB (Mycobacterium tuberculosis, UniProt P9WMR3); test: DnaB intein splicing inhibitors, dose response, biochemical, cell-free fluorescence (AID 449749); format: functional
T6 sequence (P9WMR3 whole entry): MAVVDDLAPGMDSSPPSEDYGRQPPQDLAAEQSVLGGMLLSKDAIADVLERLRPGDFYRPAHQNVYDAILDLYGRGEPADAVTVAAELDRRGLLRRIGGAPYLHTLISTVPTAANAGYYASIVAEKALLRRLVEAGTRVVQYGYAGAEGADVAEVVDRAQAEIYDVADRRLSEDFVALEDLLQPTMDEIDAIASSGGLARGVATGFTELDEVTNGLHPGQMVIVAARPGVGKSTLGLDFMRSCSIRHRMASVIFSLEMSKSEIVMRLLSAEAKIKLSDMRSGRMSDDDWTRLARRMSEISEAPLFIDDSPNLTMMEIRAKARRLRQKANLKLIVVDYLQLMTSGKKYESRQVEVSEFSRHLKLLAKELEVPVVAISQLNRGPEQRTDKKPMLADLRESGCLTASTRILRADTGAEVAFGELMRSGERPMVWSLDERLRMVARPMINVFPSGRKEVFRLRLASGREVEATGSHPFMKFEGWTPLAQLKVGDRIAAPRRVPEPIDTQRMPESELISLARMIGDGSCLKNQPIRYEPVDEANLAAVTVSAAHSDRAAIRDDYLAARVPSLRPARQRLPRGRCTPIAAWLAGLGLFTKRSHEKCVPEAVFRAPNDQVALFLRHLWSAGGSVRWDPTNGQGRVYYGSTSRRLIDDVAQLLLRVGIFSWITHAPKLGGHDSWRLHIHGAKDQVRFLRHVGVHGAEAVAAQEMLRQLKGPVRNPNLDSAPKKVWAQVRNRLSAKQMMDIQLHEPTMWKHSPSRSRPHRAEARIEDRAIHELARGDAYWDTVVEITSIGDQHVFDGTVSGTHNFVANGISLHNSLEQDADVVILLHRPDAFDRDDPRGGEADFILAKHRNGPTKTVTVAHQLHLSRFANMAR

T1 sequence (Q00975 whole entry): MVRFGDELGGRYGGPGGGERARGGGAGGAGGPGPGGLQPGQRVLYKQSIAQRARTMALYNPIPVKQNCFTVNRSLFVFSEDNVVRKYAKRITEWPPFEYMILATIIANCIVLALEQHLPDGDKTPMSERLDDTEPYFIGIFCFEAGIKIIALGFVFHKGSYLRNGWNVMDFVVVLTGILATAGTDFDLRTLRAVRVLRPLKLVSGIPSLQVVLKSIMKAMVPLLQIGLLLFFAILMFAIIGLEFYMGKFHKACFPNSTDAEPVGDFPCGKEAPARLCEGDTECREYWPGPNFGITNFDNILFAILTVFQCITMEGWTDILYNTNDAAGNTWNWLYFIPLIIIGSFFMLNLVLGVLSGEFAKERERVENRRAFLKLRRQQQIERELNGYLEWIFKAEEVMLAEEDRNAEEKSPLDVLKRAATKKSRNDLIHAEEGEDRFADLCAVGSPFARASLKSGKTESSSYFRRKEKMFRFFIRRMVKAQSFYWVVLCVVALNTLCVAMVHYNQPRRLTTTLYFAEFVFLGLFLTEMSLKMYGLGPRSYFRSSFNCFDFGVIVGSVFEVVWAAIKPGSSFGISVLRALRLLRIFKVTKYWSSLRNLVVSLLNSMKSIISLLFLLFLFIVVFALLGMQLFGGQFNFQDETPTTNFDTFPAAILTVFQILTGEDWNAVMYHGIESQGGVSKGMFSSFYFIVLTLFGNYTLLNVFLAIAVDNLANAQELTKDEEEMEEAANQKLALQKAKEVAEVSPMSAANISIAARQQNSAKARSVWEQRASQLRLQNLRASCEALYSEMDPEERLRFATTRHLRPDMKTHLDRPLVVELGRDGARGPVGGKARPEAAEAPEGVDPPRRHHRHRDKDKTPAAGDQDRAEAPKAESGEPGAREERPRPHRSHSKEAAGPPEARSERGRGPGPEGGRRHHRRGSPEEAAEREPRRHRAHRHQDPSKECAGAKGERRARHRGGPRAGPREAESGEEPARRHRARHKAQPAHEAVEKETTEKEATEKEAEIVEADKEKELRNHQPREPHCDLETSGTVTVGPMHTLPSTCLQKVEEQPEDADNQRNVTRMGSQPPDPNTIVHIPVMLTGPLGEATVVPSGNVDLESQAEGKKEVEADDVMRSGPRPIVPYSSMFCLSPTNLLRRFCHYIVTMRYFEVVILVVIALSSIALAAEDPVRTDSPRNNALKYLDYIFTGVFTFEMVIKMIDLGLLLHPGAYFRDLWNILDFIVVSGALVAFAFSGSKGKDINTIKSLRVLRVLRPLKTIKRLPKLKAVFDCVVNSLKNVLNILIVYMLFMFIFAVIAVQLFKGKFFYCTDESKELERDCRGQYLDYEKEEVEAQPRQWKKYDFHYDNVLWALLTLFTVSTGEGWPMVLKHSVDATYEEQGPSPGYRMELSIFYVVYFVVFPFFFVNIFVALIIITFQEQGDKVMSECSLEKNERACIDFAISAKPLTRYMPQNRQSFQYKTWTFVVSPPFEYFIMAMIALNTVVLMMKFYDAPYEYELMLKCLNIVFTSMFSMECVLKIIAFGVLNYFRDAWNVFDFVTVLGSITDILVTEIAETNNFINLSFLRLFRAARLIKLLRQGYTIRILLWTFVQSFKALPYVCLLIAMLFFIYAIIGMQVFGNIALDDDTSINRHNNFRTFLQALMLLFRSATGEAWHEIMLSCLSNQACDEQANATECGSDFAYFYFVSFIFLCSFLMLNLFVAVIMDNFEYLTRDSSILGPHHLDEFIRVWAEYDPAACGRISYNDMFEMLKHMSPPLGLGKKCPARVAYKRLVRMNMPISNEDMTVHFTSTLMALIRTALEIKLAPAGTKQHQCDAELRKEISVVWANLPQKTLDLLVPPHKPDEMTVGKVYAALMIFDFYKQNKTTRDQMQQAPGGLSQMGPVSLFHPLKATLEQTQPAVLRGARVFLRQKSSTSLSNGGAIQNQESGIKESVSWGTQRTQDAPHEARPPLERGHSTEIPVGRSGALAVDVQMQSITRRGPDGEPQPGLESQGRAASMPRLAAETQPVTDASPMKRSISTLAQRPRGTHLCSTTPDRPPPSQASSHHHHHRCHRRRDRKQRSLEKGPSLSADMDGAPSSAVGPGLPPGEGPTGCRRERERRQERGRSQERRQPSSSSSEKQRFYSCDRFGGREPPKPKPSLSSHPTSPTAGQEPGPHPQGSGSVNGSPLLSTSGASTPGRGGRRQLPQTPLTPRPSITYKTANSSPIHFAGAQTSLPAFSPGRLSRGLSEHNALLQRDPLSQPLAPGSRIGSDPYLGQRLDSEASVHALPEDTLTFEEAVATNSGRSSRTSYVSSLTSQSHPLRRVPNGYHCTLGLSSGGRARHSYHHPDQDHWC
T1 sequence (Q02410 whole entry): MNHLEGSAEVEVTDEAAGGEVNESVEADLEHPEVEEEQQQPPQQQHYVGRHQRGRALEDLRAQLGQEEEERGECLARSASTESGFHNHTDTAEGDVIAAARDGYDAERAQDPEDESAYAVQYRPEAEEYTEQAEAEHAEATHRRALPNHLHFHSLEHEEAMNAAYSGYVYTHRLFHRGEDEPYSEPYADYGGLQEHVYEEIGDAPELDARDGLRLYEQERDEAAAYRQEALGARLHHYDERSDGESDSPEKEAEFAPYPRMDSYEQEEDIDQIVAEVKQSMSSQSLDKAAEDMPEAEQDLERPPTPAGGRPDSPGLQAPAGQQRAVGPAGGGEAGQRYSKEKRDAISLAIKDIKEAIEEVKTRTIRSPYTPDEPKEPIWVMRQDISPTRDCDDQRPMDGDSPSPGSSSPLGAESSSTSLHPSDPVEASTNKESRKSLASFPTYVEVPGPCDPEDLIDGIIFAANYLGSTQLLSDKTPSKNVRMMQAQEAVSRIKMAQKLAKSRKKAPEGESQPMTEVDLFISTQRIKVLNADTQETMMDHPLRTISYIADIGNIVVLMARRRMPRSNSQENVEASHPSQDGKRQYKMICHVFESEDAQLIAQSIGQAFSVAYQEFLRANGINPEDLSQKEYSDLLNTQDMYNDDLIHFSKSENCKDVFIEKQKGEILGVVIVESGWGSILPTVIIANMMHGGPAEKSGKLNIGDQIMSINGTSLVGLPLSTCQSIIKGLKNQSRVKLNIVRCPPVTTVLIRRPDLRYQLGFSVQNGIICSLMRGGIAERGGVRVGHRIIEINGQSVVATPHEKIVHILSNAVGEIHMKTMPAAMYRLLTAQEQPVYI
Sequence of Cytochrome P450 3A4 (P08684 whole entry): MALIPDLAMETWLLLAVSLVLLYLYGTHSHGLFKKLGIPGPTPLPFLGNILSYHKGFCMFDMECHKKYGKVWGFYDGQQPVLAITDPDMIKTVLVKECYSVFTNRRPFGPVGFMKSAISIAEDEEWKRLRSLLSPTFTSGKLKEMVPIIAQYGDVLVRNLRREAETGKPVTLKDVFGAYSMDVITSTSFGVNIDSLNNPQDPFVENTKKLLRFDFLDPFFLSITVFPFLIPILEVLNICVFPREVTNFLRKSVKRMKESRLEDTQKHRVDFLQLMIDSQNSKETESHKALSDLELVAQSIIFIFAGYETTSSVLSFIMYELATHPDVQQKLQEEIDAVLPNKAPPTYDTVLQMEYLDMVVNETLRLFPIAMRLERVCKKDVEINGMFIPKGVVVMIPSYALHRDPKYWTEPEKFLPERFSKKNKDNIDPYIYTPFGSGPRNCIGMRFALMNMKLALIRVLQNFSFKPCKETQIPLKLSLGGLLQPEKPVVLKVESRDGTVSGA
Sequence of Induced myeloid leukemia cell differentiation protein Mcl-1 (Q07820 whole entry): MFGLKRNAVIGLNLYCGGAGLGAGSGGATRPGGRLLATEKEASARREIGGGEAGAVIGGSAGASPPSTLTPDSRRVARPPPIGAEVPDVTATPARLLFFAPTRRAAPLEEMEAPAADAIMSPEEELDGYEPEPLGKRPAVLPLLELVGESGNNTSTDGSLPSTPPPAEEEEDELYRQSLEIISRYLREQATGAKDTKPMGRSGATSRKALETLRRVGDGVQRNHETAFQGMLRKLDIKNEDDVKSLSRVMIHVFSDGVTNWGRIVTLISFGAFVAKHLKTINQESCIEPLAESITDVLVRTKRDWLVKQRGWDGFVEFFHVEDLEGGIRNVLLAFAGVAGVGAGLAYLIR
Sequence of Beta-galactosidase (Q8VNN2 whole entry): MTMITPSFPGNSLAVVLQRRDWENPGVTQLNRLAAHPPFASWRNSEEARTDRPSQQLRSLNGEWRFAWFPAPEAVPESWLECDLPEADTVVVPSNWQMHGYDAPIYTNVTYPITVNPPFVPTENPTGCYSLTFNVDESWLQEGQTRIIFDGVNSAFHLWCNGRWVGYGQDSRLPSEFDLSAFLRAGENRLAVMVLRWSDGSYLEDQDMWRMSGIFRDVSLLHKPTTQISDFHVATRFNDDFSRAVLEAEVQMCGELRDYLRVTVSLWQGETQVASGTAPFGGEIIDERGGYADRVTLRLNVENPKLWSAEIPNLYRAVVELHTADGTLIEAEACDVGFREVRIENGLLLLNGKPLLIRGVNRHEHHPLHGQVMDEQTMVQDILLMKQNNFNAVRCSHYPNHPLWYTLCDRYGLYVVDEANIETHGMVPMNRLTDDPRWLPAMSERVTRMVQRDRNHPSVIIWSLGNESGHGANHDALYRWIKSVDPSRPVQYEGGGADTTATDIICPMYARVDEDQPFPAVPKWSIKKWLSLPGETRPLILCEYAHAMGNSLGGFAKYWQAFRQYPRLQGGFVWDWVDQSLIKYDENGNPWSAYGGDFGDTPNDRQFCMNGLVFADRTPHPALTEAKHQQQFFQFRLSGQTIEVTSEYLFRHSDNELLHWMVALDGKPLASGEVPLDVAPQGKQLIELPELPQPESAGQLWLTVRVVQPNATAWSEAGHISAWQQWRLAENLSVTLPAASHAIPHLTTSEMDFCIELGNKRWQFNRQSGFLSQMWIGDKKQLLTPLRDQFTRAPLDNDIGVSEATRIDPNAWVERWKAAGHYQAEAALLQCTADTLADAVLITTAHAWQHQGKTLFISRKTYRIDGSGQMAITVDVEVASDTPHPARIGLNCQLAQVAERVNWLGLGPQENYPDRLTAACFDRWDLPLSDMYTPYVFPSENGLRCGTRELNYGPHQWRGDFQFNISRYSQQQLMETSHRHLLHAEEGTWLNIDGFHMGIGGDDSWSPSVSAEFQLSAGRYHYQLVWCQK

CC(/C=C/c1ccco1)=N\NC(=O)c1cc(C)[nH]n1
IC50 [1]: 4.52 µM (active)
IC50 [2]: 11.8 µM (active)
IC50 [3]: 4.92 µM (active)

CCCc1nnc2n1N=C(c1ccc(-c3cc(Cl)ccc3Cl)o1)CS2
IC50 [4]: 13.4 µM (active)

O=C(CSc1nc2c(c(=O)n1-c1ccc(Br)cc1)SCC2)Nc1nccs1
IC50 [4]: > 50 µM (not active)

CCOc1ccc(N=C(N)Nc2nc(CSc3nnc(C)s3)cc(=O)[nH]2)cc1
IC50 [5]: > 50 µM (inactive)

CN1CCN(S(=O)(=O)c2ccc(Br)s2)CC1
IC50 [5]: > 50 µM (inactive)

O=c1[nH]c(-c2ccc3c(c2)OCO3)nc2c1sc(=S)n2-c1ccccc1
IC50 [1]: 5.13 µM (active)
IC50 [2]: > 50 µM (inactive)

CCN(CC)C(=O)C(C(=O)c1cccc([N+](=O)[O-])c1)n1cc(Cl)ccc1=O (stereo not drawn)
EC50 [6]: > 150 µM (not active)
EC50 [7]: > 150 µM (not active)
EC50 [8]: > 150 µM (not active)
EC50 [9]: > 150 µM (inconclusive)

COc1cc(OC)nc(NC(=O)C(C)C)n1
IC50 [4]: > 50 µM (not active)

OC(CNCCc1ccc(C(F)(F)F)cc1)COc1ccc2ccccc2c1 (stereo not drawn)
CC50 [10]: 16.6 µM (active)
EC50 [11]: > 38 µM (not active)
AC50 [12]: 3.34 µM (active)
CC50 [13]: > 40 µM (active)
IC50 [14]: 22.4 µM (active)
EC50 [15]: 7.21 µM (active)

CCCCOc1ccccc1C1CC(=O)NC2=C1C(=O)CCC2 (stereo not drawn)
AC50 [16]: 15.8 µM (inconclusive)
IC50 [17]: > 80 µM (inactive)

COc1cc(NC(=O)c2ccccc2F)ccc1NC(=O)c1cc2ccccc2o1
IC50 [1]: 15.9 µM (active)
IC50 [2]: > 50 µM (inactive)

CCOc1ccc(NC(=N)Nc2nc(O)cc(CSc3nnc(C)s3)n2)cc1
EC50 [6]: 0.597 µM (active)
EC50 [18]: 5.83 µM (active)
EC50 [7]: 20.6 µM (active)
EC50 [19]: 0.291 µM (active)
EC50 [20]: 9.79 µM (active)
AC50 [12]: 0.298 µM (active)
IC50 [17]: > 80 µM (inactive)
EC50 [8]: 1.11 µM (active)
EC50 [9]: 1.37 µM (active)

COC(=O)CS(=O)(=O)c1nnc([C@H](Cc2ccccc2)NC(=O)OC(C)(C)C)o1
IC50 [21]: 12.4 µM (active)
EC50 [22]: > 40 µM (inactive)
EC50 [23]: 7.24 µM (active)
AC50 [24]: 6.11 µM (active)
IC50 [5]: 8.95 µM (active)

Cc1cccc(Nc2cc(=O)[nH]c(=O)[nH]2)c1C
IC50 [5]: > 50 µM (inactive)

COc1cccc(NC(=N)Nc2nc(O)cc(CSc3ccccn3)n2)c1
IC50 [17]: > 80 µM (inactive)

COC(Cn1c(C)c(C(C)=O)c(C(C)=O)c1C)OC
IC50 [5]: > 50 µM (inactive)

O=C(Nc1cnc(O)nc1O)c1ccc2c(c1)C(=O)N(c1cccc([N+](=O)[O-])c1)C2=O
IC50 [1]: 9.85 µM (active)
IC50 [2]: > 50 µM (inactive)
